# Key:
# human γ-globin genes = assay: Expression of human γ-globin genes monitored by qRT-PCR in β-YAC mice before and after drug treatment; assay type: in vivo, mouse
# Excerpt: The wild-type β-globin locus transgenic (β-YAC) mouse strain was kindly provided by K. Peterson and was created with the insertion of a 213 kb YAC containing the entire human β-globin locus (30). This β-YAC line contains three intact copies of the human β-globin locus integrated at a single genomic locus. The A20 β-YAC line harboring a single copy of a 150 kb β-globin locus YAC was kindly provided by K. Gaensler and M. Groudine (31). These transgenes were maintained in the hemizygous state. C57BL/6 mice containing a Bcl11a floxed allele (with loxP sites flanking exon 1) were created through gene targeting approaches (G.C.I. et al, in preparation). To obtain the Bcl11a conditional knockout mice, the Bcl11a^fl/fl mice were crossed with various Cre strains, including EpoR-GFP Cre knock-in mice (13), Vav-Cre (32) and Mx1-Cre (33) transgenic mice. The humanized mouse model of sickle cell anemia that expresses exclusively human sickle hemoglobin (HbS) was obtained from The Jackson Laboratory and has been described and characterized previously (19). These mice contain the human sickle transgene [Tg(Hu-miniLCRα1^Gγ^Aγδβ^S)Hba^0//Hba^0Hbb^0//Hbb^0] and knockout of both the murine α- and β-globin genes (hereafter called SCD mice). The human sickle transgene were created by three DNA fragments consisting of a 6.5-kb mini-LCR, a 1.5-kb Pst I fragment containing the human α1-globin gene, and a 39-kb Kpn I fragment containing the human ^Gγ, ^Aγ, δ, and β^S globin genes in their normal genomic context (19). No significant difference in globin gene expression and SCD phenotypes were observed between mice that are knockout of one copy or both copies of murine α-globin genes. To generate BCL11A knockout SCD mice, the inventors introduced the EpoR-Cre and Bcl11a^fl/fi alleles into the SCD transgenic knockout mice (hereafter called SCD/Bcl11a^−/− mice). Mice containing both the human sickle transgene and at least one copy of murine β-globin gene were used as controls. PolyI:ployC (pIpC, SIGMA®) was prepared at 2 mg/ml in PBS and administrated via intraperitoneal (i.p.) injection daily at a dose of 25 μg/kg for 7 days. […]
# FACS-sorted CD71^+Ter1 19^+ erythroid cells was isolated from bone marrows of 6-week old mice. […] Model-based expression value of probe sets were calculated by dChip from raw AFFYMETRIX® CEL files, and QQ-normalization was then applied to normalize the expression value distribution among multiple arrays (41). […] For quantitative RT-PCR analysis, RNA was extracted using a QIAamp® RNA Blood Mini Kit or an RNeasy® Plus Mini Kit (QIAGEN®). Quantified RNA was reverse-transcribed using an iScript cDNA Synthesis Kit (BIO-RAD®). cDNA samples were analyzed in triplicate with the iQ™ SYBR® Green Supermix using the iCycler Real-Time PCR Detection System (BIO-RAD®). […]
# HDAC = conditions: cited from earlier work; for concentration at which HDAC is inhibited: in vitro or in vivo, literature
# acetyl-H3 (H3ac) = assay: Western blot of acetyl-H3 (H3ac) in whole-cell extracts of bone marrow cells of treated mice; assay type: in vivo, mouse; conditions: after SAHA treatment, control and Bcl11a−/− (EpoR-Cre+) mice
# Excerpt: (§1) The wild-type β-globin locus transgenic (β-YAC) mouse strain was kindly provided by K. Peterson and was created with the insertion of a 213 kb YAC containing the entire human β-globin locus (30). This β-YAC line contains three intact copies of the human β-globin locus integrated at a single genomic locus. The A20 β-YAC line harboring a single copy of a 150 kb β-globin locus YAC was kindly provided by K. Gaensler and M. Groudine (31). These transgenes were maintained in the hemizygous state. C57BL/6 mice containing a Bcl11a floxed allele (with loxP sites flanking exon 1) were created through gene targeting approaches (G.C.I. et al, in preparation). To obtain the Bcl11a conditional knockout mice, the Bcl11a^fl/fl mice were crossed with various Cre strains, including EpoR-GFP Cre knock-in mice (13), Vav-Cre (32) and Mx1-Cre (33) transgenic mice. The humanized mouse model of sickle cell anemia that expresses exclusively human sickle hemoglobin (HbS) was obtained from The Jackson Laboratory and has been described and characterized previously (19). […]
# Expression of BCL11A was assessed using antibody 14B5 and 15E3AC11 (Abcam Inc.), as described previously (9). […] GAPDH (sc-25778, Santa Cruz Biotechnology Inc.) was analyzed as a loading control.
# [1] = tested on: acetyl-H3 within γ-promoter regions; assay: ChIP of chromatin acetyl-H3 within human globin loci in CD71+Ter119+ BM cells of treated β-YAC mice; assay type: in vivo, mouse; conditions: after SAHA treatment
# Excerpt: as §1
# ChIP was performed as previously described (10). […] Precipitated DNA samples were quantified using primers designed to amplify several control regions within the human β-globin locus as indicated below the graph. […]
compound,measurement,setting,value
"Nc1ncn([C@H]2C[C@H](O)[C@@H](CO)O2)c(=O)n1 [5-azaD, 5-aza-2′-deoxycytidine]",interaction of 5-azaD treatment with BCL11A loss on γ-globin mRNA,"human γ-globin genes; Bcl11a−/− (EpoR-Cre+) vs control β-YAC mice, 5 mg/kg daily for 5 days i.p., 5 mg/kg",unexpectedly synergistic
same,γ-globin mRNA,"human γ-globin genes; Bcl11a−/− (EpoR-Cre+) β-YAC mice, 5-azaD 5 mg/kg daily for 5 days i.p.",37.9%
same,change in γ-globin mRNA,"human γ-globin genes; normal (control, Bcl11a+/+) β-YAC mice, 5-azaD 5 mg/kg daily for 5 days i.p.",very small increment
CCC(=O)CCCCC[C@@H]1NC(=O)[C@H]2CCCCN2C(=O)[C@H]([C@@H](C)CC)NC(=O)[C@H](Cc2cn(OC)c3ccccc23)NC1=O [Apicidin],concentration at which HDAC is inhibited,HDAC,nanomolar concentrations
"O=C(/C=C/c1cccc(C(=O)NO)c1)NO [CBHA, m-carboxy-cinnamic acid bishydroxamic acid]",concentration at which HDAC is inhibited,HDAC,micromolar concentration or lower
C/C=C1\NC(=O)[C@H]2CSSCC/C=C/[C@H](CC(=O)N[C@H](C(C)C)C(=O)N2)OC(=O)[C@H](C(C)C)NC1=O [FR901228],concentration at which HDAC is inhibited,HDAC,micromolar concentrations
"O=C(CCCCCCC(=O)Nc1ccccc1)NO [SAHA, suberoylanilide hydroxamic acid]",interaction of SAHA with BCL11A loss in derepression of γ-globin mRNA,"human γ-globin genes; Bcl11a−/− (EpoR-Cre+) vs control β-YAC mice, 25 mg/kg daily i.p. for up to three weeks",synergized
same,level of histone H3 acetylation in bone marrow cells,acetyl-H3 (H3ac),elevated
same,level of histone H3 acetylation within γ-promoter regions,[1],elevated
C=C[C@@H](O)[C@@H]1O[C@H]1/C=C/[C@@H]1O[C@@H]1[C@@H](C)O [depudecin],concentration at which HDAC is inhibited,HDAC,micromolar concentrations
trichostatin A [TSA],inhibition of mammalian HDAC,HDAC; literature (Yoshida et al. 1990),potent inhibitor
